Measurements published in patent publication US8691816B2, “Pyrrole inhibitors of S-nitrosoglutathione reductase as therapeutic agents” (N30 Pharmaceuticals, Inc., priority 2008, dated 2014).

What follows are compounds tested against T1, GSNOR (GSNO Reductase) (Homo sapiens, UniProt P11766) (assay: GSNOR assay (in vitro inhibition of GSNOR activity, NADH absorbance at 340 nm)). Conditions: 0.240 mM GSNO, 0.300 mM NADH, 0.5 μg/mL GSNO Reductase, pH 7.4, 25° C.
T1 construct: made in house; host or cells: E. coli (arabinose induction)
T1 sequence (P11766 whole entry): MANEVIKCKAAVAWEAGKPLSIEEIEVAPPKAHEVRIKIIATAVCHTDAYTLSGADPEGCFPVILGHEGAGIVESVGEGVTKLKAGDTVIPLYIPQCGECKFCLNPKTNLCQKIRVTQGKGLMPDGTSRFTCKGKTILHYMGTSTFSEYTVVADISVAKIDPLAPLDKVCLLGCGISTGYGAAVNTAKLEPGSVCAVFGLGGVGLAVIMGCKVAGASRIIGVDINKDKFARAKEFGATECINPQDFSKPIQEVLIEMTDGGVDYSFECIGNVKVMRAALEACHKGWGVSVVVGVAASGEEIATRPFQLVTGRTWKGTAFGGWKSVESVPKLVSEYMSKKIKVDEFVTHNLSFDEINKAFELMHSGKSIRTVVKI
Format: biochemical
Description: Various compounds were tested in vitro for their ability to inhibit GSNOR activity. Representative compounds and their corresponding GSNOR activity are described in a paragraph before Table 1 above. GSNOR expression and purification is described in Biochemistry 2000, 39, 10720-10729.
GSNOR fermentation: Pre-cultures were grown from stabs of a GSNOR glycerol stock in 2XYT media containing 100 ug/ml ampicillin after an overnight incubation at 37° C. Cells were then added to fresh 2XYT (4 L) containing ampicillin and grown to an OD (A600) of 0.6-0.9 at 37° C. before induction. GSNOR expression was induced with 0.1% arabinose in an overnight incubation at 20° C.
GSNOR Purification: E. coli cell paste was lysed by nitrogen cavitation and the clarified lysate purified by Ni affinity chromatography on an AKTA FPLC (Amersham Pharmacia). The column was eluted in 20 mM Tris pH 8.0/250 mM NaCl with a 0-500 mM imidazole gradient. […] GSNOR was recovered in the flowthrough fraction and for crystallography is further purified by Q-Sepharose and Heparin flowthrough chromatography in 20 mM Tris pH 8.0, 1 mM DTT, 10 uM ZnSO4.
GSNOR assay: GSNO and Enzyme/NADH Solutions are made up fresh each day. The Solutions are filtered and allowed to warm to room temperature. GSNO Solution: 100 mM NaPO4 (pH 7.4), 0.480 mM GSNO. 396 μL of GSNO Solution is added to a cuvette followed by 8 μL of test compound in DMSO (or DMSO only for full reaction control) and mixed with the pipette tip. Compounds to be tested are made up at a stock concentration of 10 mM in 100% DMSO. 2 fold serial dilutions are done in 100% DMSO. 8 μL of each dilution are added to an assay so that the final concentration of DMSO in the assay is 1%. The concentrations of compounds tested range from 100 to 0.003 μM. Enzyme/NADH Solution: 100 mM NaPO4 (pH 7.4), 0.600 mM NADH, 1.0 μg/mL GSNO Reductase. 396 μL of the Enzyme/NADH Solution is added to the cuvette to start the reaction. The cuvette is placed in the Cary 3E UV/Visible Spectrophotometer and the change in 340 nm absorbance/min at 25° C. is recorded for 3 minutes. The assays are done in triplicate for each compound concentration. IC50's for each compound are calculated using the standard curve analysis in the Enzyme Kinetics Module of SigmaPlot.
Final assay conditions: 100 mM NaPO4, pH 7.4, 0.240 mM GSNO, 0.300 mM NADH, 0.5 μg/mL GSNO Reductase and 1% DMSO. Final volume: 800 μL/cuvette.

`COc1ccc(-c2ccc(CCC(=O)O)n2-c2ccc(C(N)=O)s2)cc1` [Compound 237, 3-(1-(5-carbamoylthiophen-2-yl)-5-(4-methoxyphenyl)-1H-pyrrol-2-yl)propanoic acid] and `COc1ccc(-c2ccc(CCC(=O)O)n2-c2ncc(C(N)=O)s2)cc1` [Compound 238, 3-(1-(5-carbamoylthiazol-2-yl)-5-(4-methoxyphenyl)-1H-pyrrol-2-yl)propanoic acid] cannot be ordered by IC50: under 5000 nM for the first, under 5000 nM for the second.

`Cc1cc(S(N)(=O)=O)ccc1-n1c(CCC(=O)O)ccc1-c1ccc(-n2ccnc2C)s1` [Compound 194] and `Cc1nccn1-c1ccc(-c2ccc(CCC(=O)O)n2-c2ccc(O)cc2)s1` [Compound 273, 3-(1-(4-hydroxyphenyl)-5-(5-(2-methyl-1H-imidazol-1-yl)thiophen-2-yl)-1H-pyrrol-2-yl)propanoic acid] cannot be ordered by IC50: under 1000 nM for the first, under 1000 nM for the second.

`Cc1nccn1-c1ccc(-c2ccc(CCC(=O)O)n2-c2ccc(O)cc2)cc1` [Compound 249, 3-(1-(4-hydroxyphenyl)-5-(4-(2-methyl-1H-imidazol-1-yl)phenyl)-1H-pyrrol-2-yl)propanoic acid] and `Cc1nccn1-c1csc(-c2ccc(CCC(=O)O)n2-c2ccc(O)cc2)c1` [Compound 255, 3-(1-(4-hydroxyphenyl)-5-(4-(2-methyl-1H-imidazol-1-yl)thiophen-2-yl)-1H-pyrrol-2-yl)propanoic acid] cannot be ordered by IC50: under 1000 nM for the first, under 1000 nM for the second.

`COc1cc(-n2ccnc2C)ccc1-c1ccc(CCC(=O)O)n1-c1ccc(C(N)=O)cc1C` [Compound 146, 3-(1-(4-carbamoyl-2-methylphenyl)-5-(2-methoxy-4-(2-methyl-1H-imidazol-1-yl)phenyl)-1H-pyrrol-2-yl)propanoic acid] and `Cc1cc(C(N)=O)ccc1-n1c(CCC(=O)O)ccc1-c1cc(-n2ccnc2C)cs1` [Compound 144, 3-(1-(4-carbamoyl-2-methylphenyl)-5-(4-(2-methyl-1H-imidazol-1-yl)thiophen-2-yl)-1H-pyrrol-2-yl)propanoic acid] cannot be ordered by IC50: under 1000 nM for the first, under 1000 nM for the second.

`Cc1nccn1-c1ccc(-c2ccc(CCC(=O)O)n2-c2ccc3[nH]c(=O)oc3c2)cc1` [Compound 236, 3-(5-(4-(2-methyl-1H-imidazol-1-yl)phenyl)-1-(2-oxo-2,3-dihydrobenzo[d]oxazol-6-yl)-1H-pyrrol-2-yl)propanoic acid] and `Cc1nccn1-c1ccc(-c2ccc(CCC(=O)O)n2-c2ccc3oc(=O)[nH]c3c2)cc1` [Compound 235, 3-(5-(4-(2-methyl-1H-imidazol-1-yl)phenyl)-1-(2-oxo-2,3-dihydrobenzo[d]oxazol-5-yl)-1H-pyrrol-2-yl)propanoic acid] cannot be ordered by IC50: under 5000 nM for the first, under 1000 nM for the second.

`Cc1cc(NS(C)(=O)=O)ccc1-n1c(CCC(=O)O)ccc1-c1cc(Br)cs1` [Compound 183, 3-(5-(4-bromothiophen-2-yl)-1-(2-methyl-4-(methyl-sulfonamido)-phenyl)-1H-pyrrol-2-yl)propanoic acid] and `Cc1nccn1-c1csc(-c2ccc(CCC(=O)O)n2-c2ccc(NS(C)(=O)=O)cc2)c1` [Compound 267, 3-(5-(4-(2-methyl-1H-imidazol-1-yl)thiophen-2-yl)-1-(4-(methylsulfonamido)-phenyl)-1H-pyrrol-2-yl)propanoic acid] cannot be ordered by IC50: under 5000 nM for the first, under 1000 nM for the second.

`Cc1cc2nc[nH]c2cc1-n1c(CCC(=O)O)ccc1-c1ccc(-n2ccnc2)cc1` [Compound 219, 3-(5-(4-(1H-imidazol-1-yl)phenyl)-1-(5-methyl-1H-benzo[d]imidazol-6-yl)-1H-pyrrol-2-yl)propanoic acid] and `CCc1nccn1-c1ccc(-c2ccc(CCC(=O)O)n2-c2ccc(C(N)=O)cc2C)cc1` [Compound 69, 3-(1-(4-carbamoyl-2-methylphenyl)-5-(4-(2-ethyl-1H-imidazol-1-yl)phenyl)-1H-pyrrol-2-yl)propanoic acid] cannot be ordered by IC50: under 1000 nM for the first, under 1000 nM for the second.

`COc1ccc(-c2ccc(CCC(=O)O)n2-c2ccc(C(N)=O)c(Cl)c2)cc1` [Compound 221, 3-(1-(4-carbamoyl-3-chlorophenyl)-5-(4-methoxyphenyl)-1H-pyrrol-2-yl)propanoic acid] and `COc1ccc(-c2ccc(CCC(=O)O)n2-c2ccc(O)c(F)c2)cc1` [Compound 229, 3-(1-(3-fluoro-4-hydroxyphenyl)-5-(4-methoxyphenyl)-1H-pyrrol-2-yl)propanoic acid] cannot be ordered by IC50: under 1000 nM for the first, under 5000 nM for the second.

`COc1ccc(-c2ccc(CCC(=O)O)n2-c2ccc(O)cc2Cl)cc1` [Compound 80, 3-(1-(2-chloro-4-hydroxyphenyl)-5-(4-methoxy-phenyl)-1H-pyrrol-2-yl)propanoic acid] and `COc1ccc(-c2ccc(CCC(=O)O)n2-c2ccc(F)c(C#N)c2)cc1` [Compound 226, 3-(1-(3-cyano-4-fluorophenyl)-5-(4-methoxyphenyl)-1H-pyrrol-2-yl)propanoic acid] cannot be ordered by IC50: under 1000 nM for the first, under 5000 nM for the second.

`COc1ccc(-c2ccc(CCC(=O)O)n2-c2ccc(C(N)=O)cc2C)c(Cl)c1` [Compound 118, 3-(1-(4-carbamoyl-2-methylphenyl)-5-(2-chloro-4-methoxy-phenyl)-1H-pyrrol-2-yl)propanoic acid] and `COc1ccc(-c2ccc(CCC(=O)O)n2-c2ccc(C(N)=O)cc2C)c(C)c1` [Compound 110, 3-(1-(4-carbamoyl-2-methylphenyl)-5-(4-methoxy-2-methylphenyl)-1H-pyrrol-2-yl)propanoic acid] cannot be ordered by IC50: under 1000 nM for the first, under 1000 nM for the second.

`COc1ccc(-c2ccc(CCC(=O)O)n2-c2ccc3c(N)noc3c2)cc1` [Compound 231, 3-(1-(3-aminobenzo[d]isoxazol-6-yl)-5-(4-methoxyphenyl)-1H-pyrrol-2-yl)propanoic acid] and `COc1ccc(-c2ccc(CCC(=O)O)n2-c2ccc3ncccc3c2)cc1` [Compound 216, 3-(5-(4-methoxyphenyl)-1-(quinolin-6-yl)-1H-pyrrol-2-yl)propanoic acid] cannot be ordered by IC50: under 1000 nM for the first, under 1000 nM for the second.

`Cc1cc(C(N)=O)ccc1-n1c(CCC(=O)O)ccc1-c1ccc(Cl)cc1C(N)=O` [Compound 152, 3-(1-(4-carbamoyl-2-methylphenyl)-5-(2-carbamoyl-4-chloro-phenyl)-1H-pyrrol-2-yl)propanoic acid] and `COc1cc(Cl)ccc1-c1ccc(CCC(=O)O)n1-c1ccc(C(N)=O)cc1` [Compound 264, 3-(1-(4-carbamoylphenyl)-5-(4-chloro-2-methoxyphenyl)-1H-pyrrol-2-yl)propanoic acid] cannot be ordered by IC50: under 1000 nM for the first, under 1000 nM for the second.

`COc1cc(Cl)ccc1-c1ccc(CCC(=O)O)n1-c1ccc(O)cc1` [Compound 262, 3-(5-(4-chloro-2-methoxyphenyl)-1-(4-hydroxyphenyl)-1H-pyrrol-2-yl)propanoic acid] and `COc1ccc(-c2ccc(CCC(=O)O)n2-c2ccc3ccncc3c2)cc1` [Compound 223, 3-(1-(isoquinolin-7-yl)-5-(4-methoxyphenyl)-1H-pyrrol-2-yl)propanoic acid] cannot be ordered by IC50: under 1000 nM for the first, under 5000 nM for the second.

`O=C(O)CCc1ccc(-c2ccccc2)n1-c1ccc(O)c(C(=O)O)c1` [Compound 232, 5-(2-(2-carboxyethyl)-5-phenyl-1H-pyrrol-1-yl)-2-hydroxybenzoic acid] and `Cc1cc(C(N)=O)ccc1-n1c(CCC(=O)O)ccc1-c1cc(-n2ccnc2)cs1` [Compound 120, 3-(5-(4-(1H-imidazol-1-yl)thiophen-2-yl)-1-(4-carbamoyl-2-methylphenyl)-1H-pyrrol-2-yl)propanoic acid] cannot be ordered by IC50: under 5000 nM for the first, under 1000 nM for the second.
